Laboratory results reported in article PMC8037910, “Effect of Chronic Administration of 5-(3-chlorophenyl)-4-Hexyl-2,4 -Dihydro-3H-1,2,4-Triazole-3-Thione (TP-315)—A New Anticonvulsant Drug Candidate—On Living Organisms” (International Journal of Molecular Sciences, 2021).
Where two headings read alike, the source gives them in different places.

Key:
[1] = system: Albino Swiss mice; experiment: Histopathological examination of kidneys and liver after chronic administration; format: in vivo; settings: 47.6 mg/kg i.p. for 14 days, H&E staining, vs control group
Procedure: (§1) The experiments were carried out on adult male Albino Swiss mice weighing 20 ± 5 g. […] The mice from the control group (8 mice) received 0.9% NaCl solution i.p. once daily for 14 days.
(§2) After completion of the experimental procedure (on the 15th day—24h after the last injection), the animals were decapitated. Their livers and kidneys were collected for histopathological examination, while blood was drawn for biochemical and morphological tests and for HPLC-FL determination of TP-315 in serum.
The kidneys and livers of mice from the control and experimental groups were subjected to histopathological evaluation. The organs were fixed in 10% buffered formalin at pH 7.2 and then fixed with increasing concentrations of alcohol solutions, acetone, and xylene in paraffin blocks using a tissue processor (Leica TP-20, Leica Biosystems, Wetzlar, Germany). 4 μm thick tissue sections cut with a sledge microtome (Leica SR-200, Leica Biosystems, Wetzlar, Germany) were transferred onto slides. The preparations for the histopathological samples were stained with hematoxylin and eosin and evaluated under a light microscope (Nikon Eclipse E-600, […]). Reagents were purchased from Sigma-Aldrich (St. Louis, MO, USA).

[2] = system: Albino Swiss mice; experiment: Biochemical parameters of liver and renal function in serum after chronic administration; format: in vivo; settings: 47.6 mg/kg i.p. for 14 days, unpaired t-test p > 0.05
Procedure: as §1, §2
(§3) For the determination of biochemical parameters (ALT, AST, GGT, creatinine, urea), whole blood was collected in clotting activator tubes (Sarstadt, Nümbrecht, Germany). To obtain serum, blood tubes were centrifuged at 4200 RPM for 10 min. Biochemical determinations were performed on an ERBA XL 640 analyzer (ERBA Mannheim, Germany) according to the manufacturer’s standard procedure. Whole blood for the determination of morphological parameters was collected in ethylenediaminetetraacetic acid (EDTA) tubes (Sarstadt, Nümbrecht, Germany). Morphological parameters were determined on the MYTHIC 18 Cormay analyzer (Cormay, Lublin, Poland) according to the manufacturer’s standard procedure.

[3] = system: Albino Swiss mice; experiment: Morphological blood parameters after chronic administration; format: in vivo; settings: 47.6 mg/kg i.p. for 14 days
Procedure: as §1, §2, §3

[4] = target: T1, CYP2B6 (Homo sapiens, UniProt P20813); experiment: Vivid CYP450 screening kit, CYP2B6; format: biochemical; settings: 0.015 μg/mL, 20 min incubation, p > 0.05
T1 construct: purchased Thermo Fisher Scientific
T1 sequence (P20813 1-491): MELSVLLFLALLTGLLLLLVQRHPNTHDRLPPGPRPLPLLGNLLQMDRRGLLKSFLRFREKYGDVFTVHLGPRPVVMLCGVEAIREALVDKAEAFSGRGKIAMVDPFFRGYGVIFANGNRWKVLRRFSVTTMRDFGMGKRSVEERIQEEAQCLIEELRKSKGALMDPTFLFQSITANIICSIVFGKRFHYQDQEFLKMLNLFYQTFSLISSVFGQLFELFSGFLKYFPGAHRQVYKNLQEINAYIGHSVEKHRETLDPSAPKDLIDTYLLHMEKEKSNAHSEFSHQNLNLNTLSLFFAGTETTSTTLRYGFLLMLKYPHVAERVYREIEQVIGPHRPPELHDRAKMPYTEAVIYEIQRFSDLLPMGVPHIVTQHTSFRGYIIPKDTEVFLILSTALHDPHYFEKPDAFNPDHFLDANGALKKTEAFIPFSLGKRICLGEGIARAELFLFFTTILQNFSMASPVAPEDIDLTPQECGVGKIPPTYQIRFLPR
Procedure: (§4) Possible inhibitory effect of TP-315 on the catalytic activity of human cytochrome CYP450 enzymes was tested using Vivid CYP450 screening kits (Thermo Fisher Scientific, Waltham, MA, USA) according to the manufacturer’s standard procedure (Vivid BOMCC substrate CYP2B6 blue, Vivid DBOMF substrate CYP3A4 green, Vivid DBOMF substrate CYP3A5 green, Vivid EOMCC substrate CYP2C19 blue, Vivid MOBFC substrate CYP2D6 cyan). The experiment was carried out in the endpoint test mode (reading after 20 min of incubation). The test compound was dissolved in DMSO (starting concentrations, 2.5× concentrated); to avoid the influence of the solvent on the enzyme activity, the results were compared with the solvent control. The influence of TP-315 on the activity of selected enzymes was tested at concentrations of 0.015, 0.1, 0.5, 1, 2.5, 5, and 10 μg/mL. The positive control compounds (inhibitors) were miconazole (for CYP2C19 and CYP2B6), quinidine (for CYP2D6), and ketoconazole (for CYP3A4 and CYP3A5). Inhibitor concentrations were selected according to the manufacturer’s recommendations to achieve ≥90% inhibition. All inhibitors were obtained from Sigma-Aldrich (St. Louis, MO, USA). The BioTek Synergy H1 reader (BioTek Instruments, Inc., USA) was used to read the fluorescence according to the manufacturer’s guidelines. The tests were performed in duplicate.

[5] = target: T2, CYP2D6 (Homo sapiens, UniProt P10635); experiment: Vivid CYP450 screening kit, CYP2D6; format: biochemical; settings: 0.015 μg/mL, 20 min incubation, p > 0.05
T2 construct: purchased Thermo Fisher Scientific
Procedure: as §4

[6] = target: T3, CYP3A5 (Homo sapiens, UniProt P20815); experiment: Vivid CYP450 screening kit, CYP3A5; format: biochemical; settings: 0.015 μg/mL, 20 min incubation, p > 0.05
T3 construct: purchased Thermo Fisher Scientific
Procedure: as §4

[7] = system: 6 Hz psychomotor seizure model; parameters: method as in PMID 32253957; settings: mice, cited from earlier work
[8] = system: mice; parameters: method as in PMID 23291122, PMID 25226229, PMID 25090118; unit not given here; settings: chimney test, cited from earlier work
[9] = target: batrachotoxin-binding site on voltage-gated sodium channels; parameters: method as in PMID 25226229, PMID 30594731, PMID 28824309; settings: read-out: Affinity towards Batrachotoxin-Binding Site on Sodium Channels IC50 ± SEM; cited from earlier work

T2 sequence (P10635 whole entry): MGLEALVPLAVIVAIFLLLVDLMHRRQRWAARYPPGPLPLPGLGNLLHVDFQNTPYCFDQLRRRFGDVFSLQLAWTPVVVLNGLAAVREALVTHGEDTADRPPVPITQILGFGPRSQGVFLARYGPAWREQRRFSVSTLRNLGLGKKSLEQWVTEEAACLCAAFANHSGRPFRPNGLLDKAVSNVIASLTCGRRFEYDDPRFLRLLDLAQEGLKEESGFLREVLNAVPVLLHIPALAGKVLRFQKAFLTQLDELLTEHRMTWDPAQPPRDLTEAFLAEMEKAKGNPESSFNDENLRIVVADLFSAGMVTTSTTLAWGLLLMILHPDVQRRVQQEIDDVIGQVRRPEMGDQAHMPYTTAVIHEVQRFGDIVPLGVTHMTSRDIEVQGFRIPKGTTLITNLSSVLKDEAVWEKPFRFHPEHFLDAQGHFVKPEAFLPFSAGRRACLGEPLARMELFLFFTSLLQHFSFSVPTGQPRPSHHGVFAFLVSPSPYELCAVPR
T3 sequence (P20815 whole entry): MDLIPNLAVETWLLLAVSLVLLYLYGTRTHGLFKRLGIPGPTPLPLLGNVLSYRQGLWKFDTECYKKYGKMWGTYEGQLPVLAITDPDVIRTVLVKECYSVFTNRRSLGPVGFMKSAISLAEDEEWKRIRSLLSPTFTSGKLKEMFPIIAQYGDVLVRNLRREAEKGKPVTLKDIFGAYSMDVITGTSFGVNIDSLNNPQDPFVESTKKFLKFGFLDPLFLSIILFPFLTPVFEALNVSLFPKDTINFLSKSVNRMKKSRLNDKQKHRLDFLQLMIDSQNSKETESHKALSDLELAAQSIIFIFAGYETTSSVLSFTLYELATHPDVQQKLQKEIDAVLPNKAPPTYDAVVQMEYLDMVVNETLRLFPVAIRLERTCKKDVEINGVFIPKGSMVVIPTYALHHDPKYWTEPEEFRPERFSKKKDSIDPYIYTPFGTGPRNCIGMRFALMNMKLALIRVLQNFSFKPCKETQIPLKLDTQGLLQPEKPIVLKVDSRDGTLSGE

## CCCCCCn1c(-c2cccc(Cl)c2)n[nH]c1=S [TP-315, 5-(3-Chlorophenyl)-4-hexyl-2,4-dihydro-3H-1,2,4-triazole-3-thione]
[1]
  Histopathological examination of kidneys: no differences in the microscopic structure of kidneys
  Histopathological examination of liver: normal organ without pathological changes
[2]
  ALT in serum vs control group: did not differ statistically significant
  AST in serum vs control group: did not differ statistically significant
  Creatinine concentration in serum vs control group: not statistically significant
  GGT in serum vs control group: did not differ statistically significant
  Urea concentration in serum vs control group: not statistically significant
[3]; unpaired t-test p > 0.05
  Effect of chronic administration on hematological parameters vs control group: does not cause disturbances in the white blood cell and red cell systems
[3]; examined group, mean ± SD
  BAS, basophils: 0.44 ± 0.19%
  EOS, eosinophile: 6.54 ± 2.05%
  HCT, hematocrit: 41.08 ± 3.65%
  HGB, hemoglobin concentration: 13.88 ± 1.28 g/dL
  LYM, lymphocytes: 65.7 ± 6.96%
  MCH, mean corpuscular hemoglobin: 16.62 ± 0.38 pg
  MCHC, mean corpuscular hemoglobin concentration: 33.84 ± 0.46 g/dL
  MCV, mean corpuscular volume: 49.1 ± 20.06 µm3
  MON, monocytes: 4.04 ± 1.17%
  MPV, mean platelet volume: 5.08 ± 0.25 µm3
  NEU, neutrophils: 23.28 ± 7.19%
  PCT, plateletcrit: 0.53 ± 0.16%
  PDW, platelet distribution width: 15.24 ± 0.17
  PLT, platelet: 1034.8 ± 268.44 10*3/µL
  RBC, red blood cells: 8.37 ± 0.84 10*6/μL
  RDW-CV, red blood cell distribution width: 13.46 ± 0.56%
  RDW-SD, red blood cell distribution width standard deviation: 28.46 ± 1.36 µm3
  WBC, white blood cells: 4.25 ± 1.2 10*3/µL
[4]
  Inhibition of CYP2B6 activity compared to the control: did not statistically significantly inhibit
[5]
  Inhibition of CYP2D6 activity compared to the control: did not statistically significantly inhibit
[6]
  Inhibition of CYP3A5 activity compared to the control: did not statistically significantly inhibit
[7]; pretreatment time 15 min
  Anticonvulsant Activity in 6 Hz Test ED50 ± SEM: 61.3 ± 10.1 mg/kg
[7]; pretreatment time 30 min
  Anticonvulsant Activity in 6 Hz Test ED50 ± SEM: 59.7 ± 6.8 mg/kg
[7]; pretreatment time 60 min
  Anticonvulsant Activity in 6 Hz Test ED50 ± SEM: 68.1 ± 11.0 mg/kg
[7]; pretreatment time 120 min
  Anticonvulsant Activity in 6 Hz Test ED50 ± SEM: 136.2 ± 18.3 mg/kg
[8]; pretreatment time 15 min
  Neurotoxicity in Chimney or Rotarod (†) Tests in Mice: 462.9 ± 20.0
[8]; pretreatment time 30 min
  Neurotoxicity in Chimney or Rotarod (†) Tests in Mice: 462.9 ± 20.0
[8]; pretreatment time 60 min
  Neurotoxicity in Chimney or Rotarod (†) Tests in Mice: 456.9 ± 19.7
[8]; pretreatment time 120 min
  Neurotoxicity in Chimney or Rotarod (†) Tests in Mice: 448.1 ± 21.7
[9]
  IC50: 6.21 ± 0.8 µM
